Type in all cases: cell-based
Test [1] deals with AXL (Homo sapiens (Human), UniProt P30530). Description: AXL autophosphorylation ELISA in A-172 cells. The settings on record: cellular, Gas6-stimulated, phospho-AXL ELISA. On the procedure:
A-172 glioblastoma cells (ATCC #CRL-1620) were seeded at 2.5×10^5 cells/well onto 24-well plates (Greiner #662165), in […] (Thermo Fisher #11995-040) containing 10% FBS (Thermo Fisher #26140-079), […] (Thermo Fisher #11140-050), […] (Thermo Fisher #35050-061), and 1% Penicillin Streptomycin (Thermo Fisher #15140-122). A-172 cells were incubated at 37° C., […] for 24 hand then starved for 24 h in serum-free medium. Test compounds were serially diluted to produce an 8-point dose curve in fresh serum-free medium to a final concentration of 0.3% DMSO (vehicle) and added to the cells and incubated for 1 h. Cells were then stimulated with 1 μg/mL recombinant human Gas6 (R&D Systems #885-GSB-500) for 15 min, washed with cold PBS, and immediately lysed with 150 μL of cold 1× lysis buffer [20 mM Tris, 137 mM sodium chloride, 2 mM EDTA, 10% glycerol, 1% NP-40 alternative, 1 mM activated sodium orthovanadate, 1 mM PefaBloc SC (Sigma-Aldrich #11429868001), protease/phosphatase inhibitor tablet (Thermo Fisher #A32959)]. Lysates were collected and 100 μL/well added into the human phospho-AXL DuoSet IC ELISA (R&D Systems #DYC2228-2). Assay was performed according to manufacturer's instructions and sample phospho-AXL concentrations were extrapolated using human phospho-AXL control (R&D Systems #841645) as a standard. Positive control wells (100% activity) contained Gas6-stimulated, DMSO-treated cell lysates. Negative control wells (0% activity) contained Gas6-stimulated, reference inhibitor-treated cell lysates. IC50 values were calculated by nonlinear regression analysis using a 4-parameter logistic curve fit in ActivityBase XE (IDBS).
(In an ELISA, binding on a coated surface is turned into a signal by an enzyme label.)

The target of test [2] is Met (Homo sapiens (Human), UniProt P08581). Description: Met autophosphorylation ELISA in PC-3 cells. Conditions: cellular, HGF-stimulated, phospho-Met ELISA, read-out: c-Met IC50. On the procedure:
PC-3 prostate cancer cells (ATCC #CRL-1435) were seeded at 4×10^4 cells/well onto 24-well plates (Greiner #662165), in DMEM (Thermo Fisher #11995-040) containing 10% FBS (Thermo Fisher #26140-079), 1% MEM NEAA (Thermo Fisher #11140-050), 1% GlutaMax (Thermo Fisher #35050-061), and 1% Penicillin Streptomycin (Thermo Fisher #15140-122). PC-3 cells were incubated at 37° C., 5% CO2 for 24 h and then starved for 3 h in serum-free medium. Test compounds were serially diluted to produce an 8-point dose curve in fresh serum-free medium to a final concentration of 0.3% DMSO (vehicle) and added to the cells and incubated for 1 h. Cells were then stimulated with 100 ng/mL recombinant human HGF (R&D Systems #294-HG-250) for 10 min, washed with cold PBS, and immediately lysed with 130 μL of cold 1× lysis buffer [20 mM Tris, 137 mM sodium chloride, 2 mM EDTA, 10% glycerol, 1% NP-40 alternative, 1 mM activated sodium orthovanadate, 1 mM PefaBloc SC (Sigma-Aldrich #11429868001), and protease/phosphatase inhibitor tablet (Thermo Fisher #A32959)]. Lysates were clarified by centrifugation and 100 μL/well added into the PathScan phospho-Met (panTyr) Sandwich ELISA (Cell Signaling Technology #7333). Assay was performed according to manufacturer's instructions. Positive control wells (100% activity) contained HGF-stimulated, DMSO-treated cell lysates. Negative control wells (0% activity) contained HGF-stimulated, reference inhibitor-treated cell lysates. IC50 values were calculated by nonlinear regression analysis using a 4-parameter logistic curve fit in ActivityBase XE (IDBS).

Test [3] deals with KDR (Homo sapiens (Human), UniProt P35968). Put plainly: KDR autophosphorylation ELISA in HUVEC cells. Conditions: cellular, VEGF165-stimulated, phospho-KDR ELISA. On the procedure:
Human umbilical vein endothelial cells or HUVEC (Lonza #C2519A) were seeded at 2×10^4 cells/well onto 96-well plates (Corning #3904), in EGM-2 growth medium (Lonza #CC-3162) containing 1% Penicillin Streptomycin (Thermo Fisher #15140-122). HUVEC cells were incubated at 37° C., 5% CO2 for 24 h and then starved for 24 h in serum-free EBM-2 basal medium (Lonza #CC-3156) containing 1% Penicillin Streptomycin. Test compounds were serially diluted to produce an 8-point dose curve in fresh serum-free medium to a final concentration of 0.3% DMSO (vehicle) and added to the cells and incubated for 1 h. Cells were then stimulated with 100 ng/mL recombinant human VEGF165 (R&D Systems #293-VE-500) for 5 min, washed with cold PBS, and immediately lysed with 130 μL of cold 1× lysis buffer [20 mM Tris, 137 mM sodium chloride, 2 mM EDTA, 10% glycerol, 1% NP-40 alternative, 1 mM activated sodium orthovanadate, 1 mM PefaBloc SC (Sigma-Aldrich #11429868001), protease/phosphatase inhibitor tablet (Thermo Fisher #A32959)]. Lysates were collected and 100 μL/well added into the human phospho-KDR DuoSet IC ELISA (R&D Systems #DYC1766-2). Assay was performed according to manufacturer's instructions and sample phospho-KDR concentrations were extrapolated using human phospho-KDR control (R&D Systems #841421) as a standard. Positive control wells (100% activity) contained VEGF165-stimulated, DMSO-treated cell lysates. Negative control wells (0% activity) contained non-stimulated cell lysates. IC50 values were calculated by nonlinear regression analysis using a 4-parameter logistic curve fit in ActivityBase XE (IDBS).

Bounds are passed on as bounds.

Met, sequence (P08581 25-1390): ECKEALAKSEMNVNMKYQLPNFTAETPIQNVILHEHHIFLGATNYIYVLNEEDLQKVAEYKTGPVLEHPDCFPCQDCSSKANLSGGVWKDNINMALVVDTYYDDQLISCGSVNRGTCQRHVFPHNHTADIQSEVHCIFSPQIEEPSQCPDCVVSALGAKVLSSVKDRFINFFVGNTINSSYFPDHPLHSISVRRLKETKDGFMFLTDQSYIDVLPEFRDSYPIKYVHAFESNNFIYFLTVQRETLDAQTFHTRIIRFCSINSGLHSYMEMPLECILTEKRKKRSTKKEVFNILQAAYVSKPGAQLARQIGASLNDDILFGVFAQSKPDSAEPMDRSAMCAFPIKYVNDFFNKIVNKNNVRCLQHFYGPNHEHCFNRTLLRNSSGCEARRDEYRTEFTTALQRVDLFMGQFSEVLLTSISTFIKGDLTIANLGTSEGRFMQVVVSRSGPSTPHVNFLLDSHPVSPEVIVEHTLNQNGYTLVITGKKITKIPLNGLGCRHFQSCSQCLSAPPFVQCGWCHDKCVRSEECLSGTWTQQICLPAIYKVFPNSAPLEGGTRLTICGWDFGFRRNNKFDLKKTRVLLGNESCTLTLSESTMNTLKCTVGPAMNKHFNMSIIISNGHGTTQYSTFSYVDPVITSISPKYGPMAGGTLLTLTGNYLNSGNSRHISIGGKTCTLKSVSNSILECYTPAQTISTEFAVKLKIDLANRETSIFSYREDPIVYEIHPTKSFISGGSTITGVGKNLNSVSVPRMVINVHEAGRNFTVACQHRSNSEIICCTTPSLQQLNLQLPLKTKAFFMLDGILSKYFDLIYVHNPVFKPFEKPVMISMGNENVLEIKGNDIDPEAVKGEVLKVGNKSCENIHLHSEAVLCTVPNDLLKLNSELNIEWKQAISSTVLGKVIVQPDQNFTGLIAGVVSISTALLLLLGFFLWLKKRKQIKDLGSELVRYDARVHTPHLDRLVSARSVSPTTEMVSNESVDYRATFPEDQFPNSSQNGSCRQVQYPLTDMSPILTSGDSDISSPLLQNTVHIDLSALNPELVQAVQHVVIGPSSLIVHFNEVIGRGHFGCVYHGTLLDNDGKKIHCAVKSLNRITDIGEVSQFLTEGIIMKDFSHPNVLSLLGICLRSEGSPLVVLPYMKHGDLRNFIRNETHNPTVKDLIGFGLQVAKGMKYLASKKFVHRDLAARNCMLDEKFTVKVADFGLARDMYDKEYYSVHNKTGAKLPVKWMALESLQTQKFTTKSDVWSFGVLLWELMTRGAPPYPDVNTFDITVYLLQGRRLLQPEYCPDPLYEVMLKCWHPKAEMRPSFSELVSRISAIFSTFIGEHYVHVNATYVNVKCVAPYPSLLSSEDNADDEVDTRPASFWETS
KDR, sequence (P35968 20-1356): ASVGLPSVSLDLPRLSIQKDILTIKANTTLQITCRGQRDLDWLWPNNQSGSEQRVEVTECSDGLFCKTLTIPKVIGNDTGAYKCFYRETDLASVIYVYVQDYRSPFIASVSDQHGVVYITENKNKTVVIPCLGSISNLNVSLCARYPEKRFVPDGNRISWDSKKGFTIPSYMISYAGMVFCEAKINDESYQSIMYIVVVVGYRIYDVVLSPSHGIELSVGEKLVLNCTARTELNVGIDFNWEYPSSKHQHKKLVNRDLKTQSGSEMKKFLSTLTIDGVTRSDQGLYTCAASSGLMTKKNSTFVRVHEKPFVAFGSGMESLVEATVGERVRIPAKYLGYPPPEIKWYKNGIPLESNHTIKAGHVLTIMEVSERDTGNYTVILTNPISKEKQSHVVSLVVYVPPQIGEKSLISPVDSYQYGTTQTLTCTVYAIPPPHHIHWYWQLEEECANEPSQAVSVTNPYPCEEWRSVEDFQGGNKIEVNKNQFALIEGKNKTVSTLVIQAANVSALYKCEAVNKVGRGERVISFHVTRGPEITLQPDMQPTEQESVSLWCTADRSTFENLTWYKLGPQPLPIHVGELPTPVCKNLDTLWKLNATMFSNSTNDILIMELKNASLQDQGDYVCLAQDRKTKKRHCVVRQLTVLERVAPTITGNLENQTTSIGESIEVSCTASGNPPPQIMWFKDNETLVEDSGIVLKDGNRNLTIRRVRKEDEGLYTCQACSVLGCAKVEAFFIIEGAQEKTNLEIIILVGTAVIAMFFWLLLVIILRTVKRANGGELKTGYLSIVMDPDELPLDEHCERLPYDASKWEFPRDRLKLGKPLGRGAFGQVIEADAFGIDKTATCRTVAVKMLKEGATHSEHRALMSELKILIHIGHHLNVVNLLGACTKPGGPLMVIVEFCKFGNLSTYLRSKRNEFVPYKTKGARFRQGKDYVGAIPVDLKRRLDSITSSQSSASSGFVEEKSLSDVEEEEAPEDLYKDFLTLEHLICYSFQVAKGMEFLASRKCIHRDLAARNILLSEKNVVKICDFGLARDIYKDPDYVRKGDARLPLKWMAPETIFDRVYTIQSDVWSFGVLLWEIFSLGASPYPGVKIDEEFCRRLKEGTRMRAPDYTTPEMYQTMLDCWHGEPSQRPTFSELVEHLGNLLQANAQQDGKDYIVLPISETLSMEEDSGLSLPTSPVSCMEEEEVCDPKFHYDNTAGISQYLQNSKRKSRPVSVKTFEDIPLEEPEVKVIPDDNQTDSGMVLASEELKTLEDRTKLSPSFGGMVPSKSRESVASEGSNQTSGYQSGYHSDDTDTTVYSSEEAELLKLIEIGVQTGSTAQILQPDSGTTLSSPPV
AXL, sequence (P30530 26-894): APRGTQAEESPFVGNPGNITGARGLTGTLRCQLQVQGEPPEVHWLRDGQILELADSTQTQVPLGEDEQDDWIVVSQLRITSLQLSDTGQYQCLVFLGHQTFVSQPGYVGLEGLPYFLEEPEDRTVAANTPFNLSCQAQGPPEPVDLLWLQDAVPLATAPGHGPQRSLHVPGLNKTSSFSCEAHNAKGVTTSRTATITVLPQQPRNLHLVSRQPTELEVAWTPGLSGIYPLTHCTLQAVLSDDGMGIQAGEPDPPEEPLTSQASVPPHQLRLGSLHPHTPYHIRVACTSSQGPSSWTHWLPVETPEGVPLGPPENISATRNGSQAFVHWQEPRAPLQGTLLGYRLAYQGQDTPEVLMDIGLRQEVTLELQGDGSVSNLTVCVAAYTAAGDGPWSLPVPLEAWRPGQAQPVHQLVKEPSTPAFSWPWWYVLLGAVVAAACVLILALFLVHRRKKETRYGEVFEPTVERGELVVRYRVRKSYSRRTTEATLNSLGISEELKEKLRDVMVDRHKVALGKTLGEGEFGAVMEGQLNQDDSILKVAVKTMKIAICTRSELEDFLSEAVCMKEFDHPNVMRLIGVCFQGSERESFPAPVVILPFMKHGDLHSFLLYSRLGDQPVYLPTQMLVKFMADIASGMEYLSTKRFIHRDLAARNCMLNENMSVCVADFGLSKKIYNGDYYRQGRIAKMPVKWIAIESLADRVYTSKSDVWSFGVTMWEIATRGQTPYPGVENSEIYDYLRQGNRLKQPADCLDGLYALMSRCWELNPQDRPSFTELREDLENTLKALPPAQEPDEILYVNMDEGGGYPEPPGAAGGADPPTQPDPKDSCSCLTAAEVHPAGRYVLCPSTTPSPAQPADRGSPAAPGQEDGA

As a reminder, the IC50 is the point on the concentration scale where inhibition reaches its midpoint. For the molecule `COc1cc2ncnc(Oc3ccc(NC(=O)C4(C(=O)Nc5ccc(F)cc5)CC4)cn3)c2nc1OC` [Compound 145, 1-N′-[6-(6,7-Dimethoxypyrido[3,2-d]pyrimidin-4-yl)oxypyridin-3-yl]-1-N-(4-fluorophenyl)cyclopropane-1,1-dicarboxamide], the figures for the half-inhibitory concentration (IC50) in test [1], in test [2] and in test [3] were 100 to 300 nM, more than 300 nM and more than 300 nM, respectively.

In the case of `COCCOc1cc2nccc(Oc3ccc(NC(=O)C4(C(=O)Nc5ccc(F)cc5)CC4)cn3)c2nc1OC` [Compound 114, 1-N-(4-Fluorophenyl)-1-N′-[6-[[6-methoxy-7-(2-methoxyethoxy)-1,5-naphthyridin-4-yl]oxy]pyridin-3-yl]cyclopropane-1,1-dicarboxamide], the values for the IC50 in test [1], in test [2] and in test [3] were 100 to 300 nM, 100 to 300 nM and more than 300 nM, respectively.

Turning to `COc1nc2c(Oc3ncc(NC(=O)C4(C(=O)Nc5ccc(F)cc5)CC4)cc3F)ccnc2cc1O` [Compound 121, 1-N′-[5-Fluoro-6-[(7-hydroxy-6-methoxy-1,5-naphthyridin-4-yl)oxy]pyridin-3-yl]-1-N-(4-fluorophenyl)cyclopropane-1,1-dicarboxamide], the IC50 in test [1], in test [2] and in test [3] was more than 300 nM in each case.

Regarding `CCc1noc(-c2cc3c(Oc4ncc(NC(=O)C5(C(=O)Nc6ccc(F)cc6)CC5)cc4F)ccnc3cc2OC)n1` [Compound 27, 1-N′-[6-[6-(3-Ethyl-1,2,4-oxadiazol-5-yl)-7-methoxyquinolin-4-yl]oxy-5-fluoropyridin-3-yl]-1-N-(4-fluorophenyl)cyclopropane-1,1-dicarboxamide], the IC50 in test [1], in test [2] and in test [3] was more than 300 nM throughout.

Consider `COc1cc2nccc(Oc3ncc(NC(=O)C4(C(=O)Nc5ccc(F)cc5)CC4)cc3C(F)(F)F)c2nc1OC` [Compound 89, 1-N′-[6-[(6,7-Dimethoxy-1,5-naphthyridin-4-yl)oxy]-5-(trifluoromethyl)pyridin-3-yl]-1-N-(4-fluorophenyl)cyclopropane-1,1-dicarboxamide], for which the IC50 in test [1], in test [2] and in test [3] was more than 300 nM throughout.

For `COc1cc2nccc(Oc3ncc(NC(=O)C4(C(=O)Nc5ccc(F)cc5)CC4)cc3C#N)c2nc1OC` [Compound 84, 1-N′-[5-Cyano-6-[(6,7-dimethoxy-1,5-naphthyridin-4-yl)oxy]pyridin-3-yl]-1-N-(4-fluorophenyl)cyclopropane-1,1-dicarboxamide], the IC50 in test [1], in test [2] and in test [3] was more than 300 nM throughout.

On to `CNC(=O)c1cc2c(Oc3ncc(NC(=O)C4(C(=O)Nc5ccc(F)cc5)CC4)cc3F)ccnc2cc1OCCO` [Compound 44, 1-N′-[5-Fluoro-6-[7-(2-hydroxyethoxy)-6-(methylcarbamoyl)-quinolin-4-yl]oxypyridin-3-yl]-1-N-(4-fluorophenyl)cyclopropane-1,1-dicarboxamide], for which the IC50 in test [1] is 10 to 100 nM; in test [2] it was 10 to 100 nM; in test [3], more than 300 nM.

Regarding `COc1cc2nccc(Oc3cc(C)c(NC(=O)C4(C(=O)Nc5ccc(F)cc5)CC4)cn3)c2nc1OC` [Compound 83, 1-N′-[6-[(6,7-Dimethoxy-1,5-naphthyridin-4-yl)oxy]-4-methylpyridin-3-yl]-1-N-(4-fluorophenyl)cyclopropane-1,1-dicarboxamide], the IC50 in test [1], in test [2] and in test [3] was more than 300 nM each time.

Consider `COc1cc2nccc(Oc3ncc(NC(=O)C4(C(=O)Nc5ccc(F)cc5)CC4)cc3OC)c2nc1OC` [Compound 92, 1-N′-[6-[(6,7-Dimethoxy-1,5-naphthyridin-4-yl)oxy]-5-methoxypyridin-3-yl]-1-N-(4-fluorophenyl)cyclopropane-1,1-dicarboxamide], for which the IC50 in test [1], in test [2] and in test [3] was more than 300 nM each time.

Values taken from US11673897B2, “Compounds for the treatment of kinase-dependent disorders” (Exelixis, Inc., priority 2018, dated 2023).
